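Assay format: 96-well plates, 48-hour exposure. GI50: concentration for 50% inhibition of growth. TGI marks complete inhibition of growth.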
What was measured:
Test in all cases: DTP human tumour cell line panel, 48 h
[1] = tested on: MOLT-4 leukemia
[2] = tested on: A498 renal
[3] = tested on: HT29 colon
[4] = tested on: RPMI-8226 leukemia
[5] = tested on: RXF 393 renal
[6] = tested on: HCC-2998 colon
[7] = tested on: SR leukemia
[8] = tested on: SW-620 colon
[9] = tested on: 786-0 renal
[10] = tested on: U251 CNS

Row | SMILES | GI50 [1] | TGI [1] | GI50 [2] | TGI [2] | GI50 [3] | TGI [3] | GI50 [4] | TGI [4] | GI50 [5] | TGI [5] | GI50 [6] | TGI [6] | GI50 [7] | TGI [7] | GI50 [8] | TGI [8] | GI50 [9] | TGI [9] | GI50 [10] | TGI [10]
1 | CCCCCCCCCc1cc[n+](CC(=O)c2ccc([N+](=O)[O-])cc2)cc1 | 2.1 µM | 5.27 µM | 1.26 µM | 3.14 µM | 0.313 µM | 1.29 µM | 0.439 µM | 2.15 µM | 0.754 µM | 2.15 µM | 0.514 µM | 1.93 µM | 0.612 µM | 4.48 µM | 0.403 µM | 1.63 µM | 1.75 µM | 3.25 µM | 0.457 µM | 1.76 µM
2 | COc1ccc(-c2nc(C(=O)c3ccccc3)n(CC(=O)c3ccccc3)c2-c2ccc(OC)cc2)cc1 | > 100 µM | > 100 µM | > 100 µM | > 100 µM | > 100 µM | > 100 µM | > 100 µM | > 100 µM | > 100 µM | > 100 µM | > 100 µM | > 100 µM | > 100 µM | > 100 µM | > 100 µM | > 100 µM | > 100 µM | > 100 µM | > 100 µM | > 100 µM
3 | CN1CCN(c2ccc(Nc3nc(N)c(C(=O)c4ccc5c(c4)OCCO5)s3)cc2)CC1 | 1.89 µM | 10 µM | 2.3 µM | 6.22 µM | 2.68 µM | 11.7 µM | 3.85 µM | 11.6 µM | 1.71 µM | 5.71 µM | 9.67 µM | > 19.6 µM | 2.02 µM | 12.7 µM | 3.63 µM | > 17.7 µM | 3.44 µM | 8.23 µM | 2.83 µM | 11 µM
4 | CS(=O)(=O)CCNCc1ccc(-c2ccc3ncnc(Nc4ccc(OCc5cccc(F)c5)c(C(F)(F)F)c4)c3c2)o1 | 3.81 µM | 11.1 µM | 3.54 µM | 9.04 µM | 4.54 µM | 8.92 µM | 4.79 µM | 15.6 µM | 2.85 µM | 6.15 µM | 4.4 µM | 8.29 µM | 6.34 µM | 19.4 µM | 4.15 µM | 7.93 µM | 4.68 µM | 11.1 µM | 3.98 µM | 8.48 µM
5 | COc1ccc(/C=C2\CC(C)CC3C2=NN(C(C)=O)C3c2ccc(OC)cc2)cc1 (stereo not drawn) | 16.1 µM | 50.1 µM | 17 µM | 33.1 µM | 9.08 µM | 40.2 µM | 10.9 µM | 53.2 µM | 27.2 µM | > 100 µM | 17.5 µM | 40 µM | 20.4 µM | 50.5 µM | 21.8 µM | 59 µM | 18.8 µM | 37.7 µM | 14.4 µM | 31 µM
6 | O=c1c(O)cccc2cc(O)c(O)c(O)c12 | 16.9 µM | > 100 µM | 4.16 µM | > 100 µM | 33.2 µM | > 100 µM | 6.77 µM | > 100 µM | 13.3 µM | > 100 µM | > 100 µM | > 100 µM | 3.76 µM | > 100 µM | 20.2 µM | > 100 µM | 62.1 µM | > 100 µM | 6.03 µM | > 100 µM
7 | O=C1c2ccccc2NC1(c1ccccc1)c1c(-c2ccccc2)[nH]c2ccccc12 (stereo not drawn) | – | 20.6 µM | – | > 100 µM | – | > 100 µM | – | > 100 µM | – | 64.1 µM | – | > 100 µM | – | > 100 µM | – | > 100 µM | – | > 100 µM | – | > 100 µM
8 | O=S(=O)(SCc1ccccc1)C(c1ccccc1)c1ccccc1 | – | 43.7 µM | – | > 100 µM | – | 71.4 µM | – | 85.6 µM | – | 68 µM | – | > 100 µM | – | 74.6 µM | – | 26.9 µM | – | > 100 µM | – | > 100 µM
9 | N#CSc1c[nH]c2ccc(/C=C/C(=O)/C=C(/C=C/c3ccc4[nH]cc(SC#N)c4c3)OB(F)F)cc12 | 0.306 µM | 1.62 µM | 3.24 µM | 12.3 µM | 0.394 µM | 2.38 µM | 0.522 µM | – | 0.24 µM | 0.852 µM | 3.72 µM | 19.7 µM | 0.128 µM | – | 0.333 µM | 1.16 µM | 0.343 µM | 3.44 µM | 1.04 µM | 2.99 µM
10 | NCCN.NCCN.O=C[O-].O=C[O-].[Co+3].[O-][Cl+3]([O-])([O-])[O-] | > 100 µM | > 100 µM | > 100 µM | > 100 µM | > 100 µM | > 100 µM | > 100 µM | > 100 µM | > 100 µM | > 100 µM | > 100 µM | > 100 µM | > 100 µM | > 100 µM | > 100 µM | > 100 µM | > 100 µM | > 100 µM | > 100 µM | > 100 µM
11 | C[C@@H](CN1CC(=O)NC(=O)C1)N1CC(=O)NC(=O)C1 | – | 821 µM | – | 698 µM | – | 950 µM | – | 2300 µM | – | 1140 µM | – | 1540 µM | – | 1470 µM | – | 1030 µM | – | 1120 µM | – | 839 µM

Source: PubChem BioAssay (NCI)
